# Laboratory results: ChEMBL document CHEMBL1649542, “Outer membrane protein STM3031 (Ail/OmpX-like protein) plays a key role in the ceftriaxone resistance of Salmonella enterica serovar Typhimurium” (2009)
# How the values were obtained:
# Type in all cases: functional, Salmonella enterica subsp. enterica serovar Typhimurium
# [1] = test system: Salmonella typhimurium; assay: Antibacterial activity against Salmonella enterica serovar Typhimurium 01-4 by CLSI M7-A7 agar dilution method
# [2] = test system: Salmonella typhimurium; assay: Antibacterial activity against Salmonella enterica serovar Typhimurium R200 expressing Outer membrane protein STM3031 by CLSI M7-A7 agar dilution method
# [3] = test system: Salmonella typhimurium; assay: Antibacterial activity against Salmonella enterica serovar Typhimurium R200 expressing stm3031 gene deletion mutant by CLSI M7-A7 agar dilution method
# [4] = test system: Salmonella typhimurium; assay: Antibacterial activity against Salmonella enterica serovar Typhimurium 01-4 by Etest method
# [5] = test system: Salmonella typhimurium; assay: Antibacterial activity against Salmonella enterica serovar Typhimurium R1 expressing Outer membrane protein STM3031 after serial passage by Etest method
# [6] = test system: Salmonella typhimurium; assay: Antibacterial activity against Salmonella enterica serovar Typhimurium R5 expressing Outer membrane protein STM3031 after serial passage by Etest method
# [7] = test system: Salmonella typhimurium; assay: Antibacterial activity against Salmonella enterica serovar Typhimurium R10 expressing Outer membrane protein STM3031 after serial passage by Etest method
# [8] = test system: Salmonella typhimurium; assay: Antibacterial activity against Salmonella enterica serovar Typhimurium R25 expressing Outer membrane protein STM3031 after serial passage by Etest method
# [9] = test system: Salmonella typhimurium; assay: Antibacterial activity against Salmonella enterica serovar Typhimurium R70 expressing Outer membrane protein STM3031 after serial passage by Etest method
# [10] = Salmonella enterica subsp. enterica serovar Typhimurium
Compound,MIC [1],MIC [2],MIC [3],also measured
CN[C@@H]1[C@H](O[C@H]2[C@H](O[C@H]3[C@H](O)[C@@H](O)[C@H](N=C(N)N)[C@@H](O)[C@@H]3N=C(N)N)O[C@@H](C)[C@]2(O)C=O)O[C@@H](CO)[C@H](O)[C@H]1O [STREPTOMYCIN],128 µg/mL,256 µg/mL,128 µg/mL,
CN[C@@H]1[C@H](O)[C@H](NC)[C@H]2O[C@@]3(O)C(=O)C[C@@H](C)O[C@H]3O[C@@H]2[C@H]1O [SPECTINOMYCIN],> 256 µg/mL,> 256 µg/mL,,
CCn1cc(C(=O)O)c(=O)c2ccc(C)nc21 [NALIDIXIC ACID],4 µg/mL,1 µg/mL,0.5 µg/mL,
CN(C)[C@@H]1C(O)=C(C(N)=O)C(=O)[C@@]2(O)C(O)=C3C(=O)c4c(O)cccc4[C@@](C)(O)[C@H]3C[C@@H]12 [TETRACYCLINE],8 µg/mL,16 µg/mL,4 µg/mL,
CCN1CCN(C(=O)N[C@@H](C(=O)N[C@@H]2C(=O)N3[C@@H]2SC(C)(C)[C@@H]3C(=O)O)c2ccccc2)C(=O)C1=O [PIPERACILLIN],256 µg/mL,> 256 µg/mL,,
Cn1nnnc1SCC1=C(C(=O)O)N2C(=O)[C@@H](NC(=O)[C@H](O)c3ccccc3)[C@H]2SC1 [CEFAMANDOLE],2 µg/mL,> 256 µg/mL,64 µg/mL,
CC(=O)OCC1=C(C(=O)O)N2C(=O)[C@@H](NC(=O)Cc3cccs3)[C@H]2SC1 [CEPHALOTHIN],4 µg/mL,> 256 µg/mL,128 µg/mL,
CC[C@H]1OC(=O)[C@H](C)[C@@H](O[C@H]2C[C@@](C)(OC)[C@@H](O)[C@H](C)O2)[C@H](C)[C@@H](O[C@@H]2O[C@H](C)C[C@H](N(C)C)[C@H]2O)[C@](C)(O)C[C@@H](C)C(=O)[C@H](C)[C@@H](O)[C@]1(C)O [ERYTHROMYCIN],128 µg/mL,4 µg/mL,2 µg/mL,
CO/N=C(\C(=O)N[C@@H]1C(=O)N2C(C(=O)O)=C(CSc3nc(=O)c(O)nn3C)CS[C@H]12)c1csc(N)n1 [CEFTRIAXONE],0.047 µg/mL,> 256 µg/mL,4 µg/mL,MIC [4]: 0.047 µg/mL; MIC [5]: 2 µg/mL; MIC [6]: 6 µg/mL; MIC [7]: 12 µg/mL; MIC [8]: 24 µg/mL; MIC [9]: 64 µg/mL
GENTAMICIN,,,,"MIC [1, 10]: 1 µg/mL; MIC [2, 10]: 1 µg/mL; MIC [3, 10]: 1 µg/mL"
CO[C@@H]1[C@@H](OC(N)=O)[C@@H](O)[C@H](Oc2ccc3c(O)c(NC(=O)c4ccc(O)c(CC=C(C)C)c4)c(=O)oc3c2C)OC1(C)C [NOVOBIOCIN],256 µg/mL,256 µg/mL,128 µg/mL,
CO[C@H]1/C=C/O[C@@]2(C)Oc3c(C)c(O)c4c(O)c(c(/C=N/N5CCN(C)CC5)c(O)c4c3C2=O)NC(=O)/C(C)=C\C=C\[C@H](C)[C@H](O)[C@@H](C)[C@@H](O)[C@@H](C)[C@H](OC(C)=O)[C@@H]1C [RIFAMPIN],16 µg/mL,16 µg/mL,16 µg/mL,
